Experimental findings from ChEMBL document CHEMBL1158197, “A new prenylated flavonol from the root of Petalostemon purpureus” (1996) are described below.

Converted amounts (≈) assume the structure as drawn. The source made the active and inactive calls. The calls are words filed in the database; no cut-off is given here.

For test [1], the system named is Betapolyomavirus macacae. The experiment in a line: Induction of DNA-strand scission activity in SV40 form 1 DNA at 25 ug/mL.
Test [2] is described as follows: Cytotoxicity against human BC1 cells. The settings on record: read-out: ED50 (the source's name). Format: functional.
The test system of another test is HT. The experiment in a line: Cytotoxicity against human HT cells. Particulars: read-out: ED50 (the source's name). In kind it is functional.
The next test has as its system Lu1. The experiment in a line: Cytotoxicity against human Lu1 cells. Format: functional. Particulars: read-out: ED50 (the source's name).
A further test has as its system SK-MEL-2. The experiment in a line: Cytotoxicity against human SK-MEL-2 cells. Format: functional. Particulars: read-out: ED50 (the source's name).
Another test has as its system Col2. The experiment in a line: Cytotoxicity against human Col2 cells. In kind it is functional. The settings on record: read-out: ED50 (the source's name).
The next test deals with KB. The experiment in a line: Cytotoxicity against human KB cells. Format: functional. The settings on record: read-out: ED50 (the source's name).
Test [3] can be described thus: Cytotoxicity against human KBVIN cells in presence of vinblastine. Format: functional. Particulars: read-out: ED50 (the source's name).
A short description of test [4]: Cytotoxicity against human KBVIN cells in absence of vinblastine. Particulars: read-out: ED50 (the source's name). Format: functional.
For a further test, the system named is A-431. The experiment in a line: Cytotoxicity against human A431 cells. In kind it is functional. Particulars: read-out: ED50 (the source's name).
In another test the test system is LNCaP. The experiment in a line: Cytotoxicity against human LNCAP cells. The settings on record: read-out: ED50 (the source's name). In kind it is functional.
The next test concerns ZR-75-1. The experiment in a line: Cytotoxicity against human ZR-75-1 cells. The settings on record: read-out: ED50 (the source's name). Format: functional.
A short description of test [5]: Cytotoxicity against human U373 cells. In kind it is functional, U-373MG ATCC. Particulars: U373 MG, read-out: ED50 (the source's name).
Test [6] has as its system Betapolyomavirus macacae. The experiment in a line: Induction of DNA-strand scission activity in SV40 form 1 DNA at 0.1 ug/mL.

With `CC(C)=CCCC1(C)C=Cc2c(-c3oc4cc(O)cc(O)c4c(=O)c3O)ccc(O)c2O1` (configuration not stated) [PETALOPURPURENOL], the result with Betapolyomavirus macacae [1] was inactive. Moreover, the EC50 is 9.9 µg/mL (≈ 22.7 µM) in test [2]; 7.3 µg/mL (≈ 16.7 µM) in the test on HT; 14.8 µg/mL (≈ 33.9 µM) with Lu1; 17.1 µg/mL (≈ 39.2 µM) in the test with SK-MEL-2; > 20 µg/mL in the test with Col2; 18.9 µg/mL (≈ 43.3 µM) in the test on KB. The EC50 came out at 1 µg/mL in test [3]; 6.7 µg/mL (≈ 15.4 µM) in test [4]; 11.9 µg/mL (≈ 27.3 µM) in the test with A-431; 14.8 µg/mL (≈ 33.9 µM) in the test on LNCaP; 4.1 µg/mL (≈ 9.39 µM) in the test on ZR-75-1; 13.3 µg/mL (≈ 30.5 µM) in test [5].
Consider `CC(C)=CCc1cc(O)c(O)c(CC=C(C)C)c1[C@H]1Oc2c(CC=C(C)C)c(O)cc(O)c2C(=O)[C@@H]1O` [PETALOSTEMUMOL], for which the outcome in the test with Betapolyomavirus macacae [1] was Active. Besides, the EC50 in [2] was > 20 µg/mL; in the test with HT it was 10.3 µg/mL (≈ 20.3 µM); in the test with Lu1, > 20 µg/mL; with SK-MEL-2 it was > 20 µg/mL; in the test with Col2 it was > 20 µg/mL; with KB, > 20 µg/mL. Besides, the EC50 is 1.2 µg/mL in test [3]; > 20 µg/mL in test [4]; > 20 µg/mL in the test with A-431; > 20 µg/mL in the test on LNCaP; 17.1 µg/mL (≈ 33.6 µM) in the test with ZR-75-1; > 20 µg/mL in test [5].
For BLEOMYCIN SULFATE, in the test with Betapolyomavirus macacae [6], the outcome was Active.
